Test results: publication PMC12130801, “Restoration of the Tumor Suppressor Function of Y220C-Mutant p53 by Rezatapopt, a Small-Molecule Reactivator” (Cancer Discovery, 2025)

Key:
p53 Y220C mutant = molecular target: T1, p53 Y220C mutant (Homo sapiens, UniProt P04637, Y220C); experiment: SPR (Biacore 8K); also thermal shift and TR-FRET DNA binding
T1 construct: gene TP53; Biotinylated DBD of p53-Y220C

SNU-NCC-19 = experiment: cells; set-up: 5-day MTT proliferation assay, absorbance 570 nm, per cent viability of untreated cells, IC50 from XLfit; details: 120 h; 5-day MTT proliferation; read-out: PC14586 MTT IC50
Description: (§1) The antiproliferative activity of compounds was evaluated using the MTT (Sigma-Aldrich, Cat. # M5655-1G) assay in a 96-well plate format. Cells were seeded at an appropriate density depending on the growth rate in 96-well microtiter plates, and compounds were tested at eight concentrations with 2-fold serial dilutions. Antiproliferative activity was assessed 5 days later by the conversion of the tetrazolium dye MTT (1 mg/mL) into insoluble formazan by viable cells, which was dissolved in ethanol and measured by a microplate reader for absorbance with a wavelength of 570 nm and a reference wavelength of 650 nm. The results were presented as a percentage of the viability of untreated cells (control). The IC50 was determined from the regression of a plot of the logarithm of concentration versus percentage of viability by XLfit IDBS. The data presented thus far indicate that PC14586 is a potent and selective reactivator of p53-Y220C with strong antiproliferative effects driven by cell-cycle arrest. To further investigate the selectivity and effects on proliferation following treatment with PC14586, additional p53-Y220C, p53 hotspot mutant, and p53-WT cell lines were assessed in a 5-day 3-[4,5-dimethylthiazol-2-yl]-2,5-diphenyl tetrazolium bromide (MTT) assay. […] The less sensitive p53-Y220C cell lines, TE-8 and HCC1419, have an additional p53 mutation. In the case of TE-8, the secondary mutation, M237I, is in the DBD of p53 and has been reported to interfere with p53 DNA binding ([36]). The spectrum of sensitivity to our compounds in cell lines with additional p53 mutations may indicate that monitoring second-site mutations and patient responses could yield mechanistic insights and potential biomarkers.

SU.86.86 = experiment: cells; set-up: 5-day MTT proliferation assay, absorbance 570 nm, per cent viability of untreated cells, IC50 from XLfit; details: Homo sapiens, SU.86.86, 120 h; 5-day MTT proliferation; read-out: PC14586 MTT IC50
Description: as §1

HCC1419# = experiment: cells; set-up: 5-day MTT proliferation assay, absorbance 570 nm, per cent viability of untreated cells, IC50 from XLfit; details: Homo sapiens, HCC1419, 120 h; 5-day MTT proliferation; read-out: PC14586 MTT IC50
Description: as §1

MFE-296# = experiment: cells; set-up: 5-day MTT proliferation assay, absorbance 570 nm, per cent viability of untreated cells, IC50 from XLfit; details: Homo sapiens, MFE-296, 120 h; 5-day MTT proliferation; read-out: PC14586 MTT IC50
Description: as §1

NUGC-3 = experiment: cells; set-up: 5-day MTT proliferation assay, absorbance 570 nm, per cent viability of untreated cells, IC50 from XLfit; details: Homo sapiens, NUGC-3, 120 h; 5-day MTT proliferation; read-out: PC14586 MTT IC50
Description: as §1

C-33A = experiment: cells; set-up: 5-day MTT proliferation assay, absorbance 570 nm, per cent viability of untreated cells, IC50 from XLfit; details: Homo sapiens, C-33-A, 120 h; 5-day MTT proliferation; read-out: PC14586 MTT IC50
Description: as §1

TOV-112D = experiment: cells; set-up: 5-day MTT proliferation assay, absorbance 570 nm, per cent viability of untreated cells, IC50 from XLfit; details: Homo sapiens, TOV112D, 120 h; 5-day MTT proliferation; read-out: PC14586 MTT IC50
Description: as §1

KON = experiment: cells; set-up: 5-day MTT proliferation assay, absorbance 570 nm, per cent viability of untreated cells, IC50 from XLfit; details: 120 h; 5-day MTT proliferation; read-out: PC14586 MTT IC50
Description: as §1

BxPC-3 = experiment: cells; set-up: 5-day MTT proliferation assay, absorbance 570 nm, per cent viability of untreated cells, IC50 from XLfit; details: Homo sapiens, BXPC-3, 120 h; 5-day MTT proliferation; read-out: PC14586 MTT IC50
Description: as §1

HuH-7 = experiment: cells; set-up: 5-day MTT proliferation assay, absorbance 570 nm, per cent viability of untreated cells, IC50 from XLfit; details: Homo sapiens, Huh-7, 120 h; 5-day MTT proliferation; read-out: PC14586 MTT IC50
Description: as §1

TE-8# = experiment: cells; set-up: 5-day MTT proliferation assay, absorbance 570 nm, per cent viability of untreated cells, IC50 from XLfit; details: Homo sapiens, TE-8, 120 h; 5-day MTT proliferation; read-out: PC14586 MTT IC50
Description: as §1

T3M-4 = experiment: cells; set-up: 5-day MTT proliferation assay, absorbance 570 nm, per cent viability of untreated cells, IC50 from XLfit; details: T3M4, 120 h; 5-day MTT proliferation; read-out: PC14586 MTT IC50
Description: as §1

NUGC-3_KO = experiment: cells; set-up: 5-day MTT proliferation assay, absorbance 570 nm, per cent viability of untreated cells, IC50 from XLfit; details: 120 h; 5-day MTT proliferation; read-out: PC14586 MTT IC50
Description: as §1

HCC2935 = experiment: cells; set-up: 5-day MTT proliferation assay, absorbance 570 nm, per cent viability of untreated cells, IC50 from XLfit; details: Homo sapiens, HCC2935, 120 h; 5-day MTT proliferation; read-out: PC14586 MTT IC50
Description: as §1

A-431 = experiment: cells; set-up: 5-day MTT proliferation assay, absorbance 570 nm, per cent viability of untreated cells, IC50 from XLfit; details: Homo sapiens, A-431, 120 h; 5-day MTT proliferation; read-out: PC14586 MTT IC50
Description: as §1

EFE-184 = experiment: cells; set-up: 5-day MTT proliferation assay, absorbance 570 nm, per cent viability of untreated cells, IC50 from XLfit; details: Homo sapiens, EFE-184, 120 h; 5-day MTT proliferation; read-out: PC14586 MTT IC50
Description: as §1

SF-295 = experiment: cells; set-up: 5-day MTT proliferation assay, absorbance 570 nm, per cent viability of untreated cells, IC50 from XLfit; details: Homo sapiens, SF-295, 120 h; 5-day MTT proliferation; read-out: PC14586 MTT IC50
Description: as §1

HCT 116 = experiment: cells; set-up: 5-day MTT proliferation assay, absorbance 570 nm, per cent viability of untreated cells, IC50 from XLfit; details: Homo sapiens, HCT-116, 120 h; 5-day MTT proliferation; read-out: PC14586 MTT IC50
Description: as §1

SJSA-1 = experiment: cells; set-up: 5-day MTT proliferation assay, absorbance 570 nm, per cent viability of untreated cells, IC50 from XLfit; details: Homo sapiens, SJSA-1, 120 h; 5-day MTT proliferation; read-out: PC14586 MTT IC50
Description: as §1

T1 sequence (P04637 94-312 limits assumed, stated change not applied): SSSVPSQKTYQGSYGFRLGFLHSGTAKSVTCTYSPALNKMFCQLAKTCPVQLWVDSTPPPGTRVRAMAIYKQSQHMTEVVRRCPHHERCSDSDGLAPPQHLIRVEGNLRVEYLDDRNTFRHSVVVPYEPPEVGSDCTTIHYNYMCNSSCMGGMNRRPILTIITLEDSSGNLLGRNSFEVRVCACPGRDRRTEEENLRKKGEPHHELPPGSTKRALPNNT

IC50 (SNU-NCC-19): 0.23 µM
IC50 (HCC1419#): 4.87 µM
IC50 (BxPC-3): 0.33 µM
IC50 (HuH-7): 0.49 µM
IC50 (HCC2935): 0.4 µM
IC50 (A-431): 13.8 µM
IC50 (HCT 116): 19.3 µM
IC50 (SJSA-1): > 20 µM
Compound: CNC(=O)c1ccc(NCC#Cc2cc3c(N[C@@H]4CCN(C)C[C@@H]4F)cccc3n2CC(F)(F)F)c(OC)c1 [PC14586, rezatapopt]
Kd (p53 Y220C mutant): PC14374 and PC14586 both have low nmol/L SC150 and SPR Kd
IC50 (SU.86.86): 16.8 µM
IC50 (MFE-296#): 0.5 µM
IC50 (NUGC-3): 0.59 µM
IC50 (C-33A): 18.5 µM
IC50 (TOV-112D): 13 µM
IC50 (KON): 1.05 µM
IC50 (TE-8#): 8.66 µM
IC50 (T3M-4): 1.81 µM
IC50 (NUGC-3_KO): 15.5 µM
IC50 (EFE-184): 12.5 µM
IC50 (SF-295): 11.2 µM
